Drawing on ChEMBL document CHEMBL3769343, “Spiromastilactones: A new class of influenza virus inhibitors from deep-sea fungus” (Eur J Med Chem, 2016), this text covers EC50 for four compounds.

By EC50 is commonly meant the concentration at which the effect is half-maximal.

Common to all, as to format: functional, organism-based
Experiment [1] relates to Influenza A virus. Description: Antiviral activity against oseltamivir-resistant influenza A virus LN/1109 (H1N1) infected in dog MDCK cells assessed as inhibition of virus induced cytopathic effect after 40 hrs by Cell-Titer-Glo assay.
The test system of experiment [2] is Influenza A virus. Kind of experiment: Antiviral activity against amantadine-resistant influenza A virus HN/1222 (H3N2) infected in dog MDCK cells assessed as inhibition of virus induced cytopathic effect after 40 hrs by Cell-Titer-Glo assay.
For experiment [3], the system named is Influenza A virus. Kind of experiment: Antiviral activity against amantadine-resistant influenza A virus JX/312 (H3N2) infected in dog MDCK cells assessed as inhibition of virus induced cytopathic effect after 40 hrs by Cell-Titer-Glo assay. On the technique in general: Protection from cytopathic effect is a common read-out in antiviral testing.

With `CCCc1c(Cl)c(O)cc(OC)c1Oc1c(Cl)c(O)c(Cl)c2c1C(=O)O[C@@H]2CC`, the EC50 was 33.5 µM in experiment [1], 38.5 µM in experiment [2] and 35.3 µM in experiment [3].

For the compound `NC12CC3CC(CC(C3)C1)C2` [AMANTADINE], the figures for the EC50 in experiment [1], in experiment [2] and in experiment [3] were over 200 µM, over 20.5 µM and 4.28 µM, respectively.

Turning to `CCOC(=O)C1=C[C@@H](OC(CC)CC)[C@H](NC(C)=O)[C@@H](N)C1` [OSELTAMIVIR], the concentration giving a half-maximal response (EC50) is 0.82 µM in experiment [1], over 200 µM in experiment [2] and 9.75 µM in experiment [3].

For `NC(=O)c1ncn([C@@H]2O[C@H](CO)[C@@H](O)[C@H]2O)n1` [RIBAVIRIN], the EC50 in experiment [1] is 1.05 µM; in experiment [2], 3.56 µM; in experiment [3], 1.43 µM.
